According to ChEMBL document CHEMBL1255230, “Chemical inhibitor of nonapoptotic cell death with therapeutic potential for ischemic brain injury” (Nat Chem Biol, 2005):
Calls of active or inactive are those of the source. The rule behind the calls is not given here.

How the values were obtained:
[1] = Inhibition of death receptor signaling mediated necroptotic cell death in mouse 3T3 cells assessed as cell viability after 24 hrs by ATP based viability assay in presence of TNFalpha and zVAD-fmk; conditions: NIH3T3
[2] = tested on: Jurkat; test: Effect on cell cycle in human Jurkat cells assessed as cells in G2/M phase; assay type: functional, cell-based
[3] = tested on: NIH3T3; test: Inhibition of apoptosis in mouse 3T3 cells assessed as cell viability after 24 hrs by ATP based viability assay in presence of TNFalpha and CHX; assay type: functional
[4] = tested on: NIH3T3; test: Effect on morphology of nucleus in mouse 3T3 cells after 24 hrs by TO-PRO-3 staining in presence of TNFalpha and zVAD-fmk; assay type: functional, cell-based
[5] = Inhibition of death receptor signaling mediated necroptotic cell death in human Jurkat cells deficient in FADD and expressing RIP K45M mutant assessed as cell viability after 48 hrs by FACS in presence of AP1510; assay type: cell-based
[6] = tested on: Jurkat; test: Effect on gene expression in human Jurkat cells after 16 hrs by Agilent DNA chip analysis; assay type: functional, cell-based
[7] = tested on: Jurkat; test: Inhibition of necrosis in human Jurkat cells deficient in FADD assessed as inhibition of nuclear condensation by bright field microscopy in presence of TNFalpha; assay type: functional, cell-based
[8] = tested on: Jurkat; test: Effect on cell cycle in human Jurkat cells deficient in FADD assessed as cells in G2/M phase in presence of TNFalpha relative to control; assay type: functional
[9] = Inhibition of death receptor signaling mediated necroptotic cell death in human Jurkat cell deficient in FADD assessed as changes in cell size after 24 hrs by forward and side scatter FACS analysis in presence of TNFalpha; assay type: cell-based
[10] = tested on: Jurkat; test: Effect on cell cycle in human Jurkat cells deficient in FADD assessed as cells in S phase in presence of TNFalpha relative to control; assay type: functional
[11] = Inhibition of death receptor signaling mediated necroptotic cell death in human Jurkat cell deficient in FADD assessed as cell viability after 30 hrs by ATP based viability assay in presence of TNFalpha
[12] = Inhibition of death receptor signaling mediated necroptotic cell death in human Jurkat cells deficient in FADD assessed as decreased levels of PE-conjugated LC3-II (autophagy marker) after 24 hrs by Western blot method in presence of TNFalpha; assay type: cell-based
[13] = tested on: NIH3T3; test: Effect on morphology of mitochondria in mouse 3T3 cells after 24 hrs by anti-cytochrome c immunofluorescence in presence of TNFalpha and zVAD-fmk; assay type: functional, cell-based
[14] = Inhibition of death receptor signaling mediated necroptotic cell death in human Jurkat cells deficient in FADD and expressing FKBP12-based dimerization domain assessed as cell viability after 48 hrs by FACS in presence of AP1510, zVAD-fmk
[15] = tested on: Jurkat; test: Induction of proliferative capacity in necroptotic human Jurkat cell deficient in FADD assessed as cell viability; assay type: functional, cell-based
[16] = tested on: Jurkat; test: Effect on plasma membrane integrity in human Jurkat cells; assay type: functional, cell-based
[17] = tested on: Jurkat; test: Effect on apoptosis in human Jurkat cell assessed as cytoplasm condensation by electron microscopy in presence of FasL and CHX; assay type: functional, cell-based
[18] = Inhibition of death receptor signaling mediated necroptotic cell death in mouse 3T3 cells assessed as decreased levels of PE-conjugated autophagy marker LC3-II after 24 hrs by Western blot method in presence of TNFalpha and zVAD-fmk; assay type: cell-based; conditions: NIH3T3
[19] = tested on: Jurkat; test: Effect on apoptosis in human Jurkat cell assessed as nuclear fragmentation by electron microscopy in presence of FasL and CHX; assay type: functional, cell-based
[20] = Inhibition of death receptor signaling mediated necrotic cell death in human Jurkat cell assessed as cell viability after 30 hrs by ATP based viability assay in presence of FasL, CHX, zVAD.fmk
[21] = Inhibition of death receptor signaling mediated necroptotic cell death in human Jurkat cells deficient in FADD and expressing FKBP12-based dimerization domain assessed as cell viability after 48 hrs by FACS in presence of AP1510
[22] = tested on: Jurkat; test: Inhibition of necrosis in human Jurkat cells assessed as nuclear condensation by bright field microscopy in presence of FasL, CHX and zVAD-fmk; assay type: functional, cell-based
[23] = tested on: Mus musculus; test: Inhibition of necroptosis in icv dosed mouse middle cerebral artery occlusion induced ischemic injury model assessed as reduction of infarct volume; assay type: functional, organism-based
[24] = Inhibition of death receptor signaling mediated necrotic cell death in human Jurkat cell expressing FADD fused to FKBP12-based dimerization domain (JK-FF)assessed as cell viability after 48 hrs by ATP based viability assay in presence of AP20187 and zVAD.fmk
[25] = tested on: Jurkat; test: Effect on cell cycle in human Jurkat cells assessed as cells in sub-G1 phase; assay type: functional, cell-based
[26] = tested on: Jurkat; test: Effect on apoptosis in human Jurkat cell assessed as chromatin marginalization by electron microscopy in presence of FasL and CHX; assay type: functional, cell-based
[27] = tested on: NIH3T3; test: Effect on actin cytoskeleton in mouse 3T3 cells after 24 hrs by phalloidin-TRITC staining in presence of TNFalpha and zVAD-fmk; assay type: functional, cell-based
[28] = tested on: Jurkat; test: Effect on apoptosis in human Jurkat cell assessed as plasma membrane blebbing by electron microscopy in presence of FasL and CHX; assay type: functional, cell-based
[29] = Inhibition of death receptor signaling mediated necroptotic cell death in human Jurkat cells deficient in FADD and expressing RIP K45M mutant assessed as cell viability after 48 hrs by FACS in presence of AP1510, zVAD-fmk; assay type: cell-based
[30] = tested on: Jurkat; test: Effect on changes in cell shape in human Jurkat cells; assay type: functional, cell-based
[31] = Inhibition of death receptor signaling mediated necrotic cell death in mouse L929 cells assessed as cell viability after 24 hrs by ATP based viability assay in presence of TNFalpha
[32] = tested on: U-937; test: Inhibition of apoptosis in human U937 cells assessed as cell viability after 48 hrs by ATP based viability assay in presence of TNFalpha and CHX; assay type: functional
[33] = tested on: NIH3T3; test: Effect on microtubule cytoskeleton in mouse 3T3 cells after 24 hrs by anti-tubulin immunofluorescence method in presence of TNFalpha and zVAD-fmk; assay type: functional, cell-based

For `CN1C(=O)C(Cc2c[nH]c3ccccc23)NC1=S` (centres undefined) [NECROSTATIN], the inhibition [1] was “Active”, the Activity [2] was “inactive” and the inhibition [3] was “inactive”. For the same compound, the Activity [4] was “inactive”, the inhibition [5] was “Active” and the Activity [6] was “inactive”. The inhibition [7] was “Active”, the Activity [8] was 12.1% and the inhibition [9] was “Active”. For the same compound, the Activity [10] was 44.8%, the IC50 [11] was 494 nM and the inhibition [11] was “Active”. For the same compound, the inhibition [12] was “Active”, the Activity [13] was “inactive” and the inhibition [14] was “Active”. The Activity [15] was “Active”, the Activity [16] was “inactive” and the Activity [17] was “inactive”. The inhibition [18] was “Active”, the Activity [19] was “inactive” and the inhibition [20] was “Active”. The inhibition [21] was “Active”, the inhibition [22] was “Active” and the inhibition [23] was “Active”. For the same compound, the inhibition [24] was “Active”, the Activity [25] was “inactive” and the Activity [26] was “inactive”. The Activity [27] was “inactive”, the Activity [28] was “inactive” and the inhibition [29] was “Active”. For the same compound, the Activity [30] was “inactive”, the inhibition [31] was “Active” and the inhibition [32] was “inactive”. The Activity [33] was “inactive”.
